Laboratory results from patent publication US9408852B2, “Method of lowering serum uric acid levels with (S)-tofisopam” (PHARMOS CORPORATION, priority 2011, dated 2016).
Values joined by “and” are separate entries in the source; they are usually repeats but may differ in a detail not shown here. Equal values may be shown once.

What was measured:
Format in all cases: in vivo, human
serum creatinine = experiment: Serum creatinine in male and female patients with hyperuricemia and gout, 7 days (Example 8)
Description: The study lasted 7 days, and patients were treated with placebo or 50 mg of enantiomerically-pure (S)-tofisopam once a day (qd) on Day 1 and Day 7 of the study, and with placebo or 50 mg of enantiomerically-pure (S)-tofisopam three times a day (tid) for Days 2 to 6 of the study. […] In Table 7, days indicated with a minus sign (e.g. D-1) indicate the time point corresponding to that number of days before treatment was initiated. For example, D-14 is the time point fourteen days before treatment was initiated.

[1] = tested on: urinary uric acid excretion; experiment: 24 h urinary uric acid excretion in patients with hyperuricemia and gout (Example 9); conditions: for Percent change in Uu (mg/24 h), amount of uric acid excreted into the urine over 24 hours / Percent change in Uu (mg/dL), concentration of uric acid in 24 hour urine: 50 mg qd Day 1 and 7, tid Days 2 to 6
Description: (§1) The study lasted 7 days, and patients were treated with placebo or 50 mg of enantiomerically-pure (S)-tofisopam once a day (qd) on Day 1 and Day 7 of the study, and with placebo or 50 mg of enantiomerically-pure (S)-tofisopam three times a day (tid) for Days 2 to 6 of the study. […] In Table 8, days indicated with a minus sign (e.g. D-1) indicate the time point corresponding to that number of days before treatment was initiated. For example, D-14 is the time point fourteen days before treatment was initiated.

serum uric acid = experiment: Serum uric acid in male and female patients with hyperuricemia and gout, 7 days (Example 7)
Description: The study lasted 7 days, and patients were treated with placebo or 50 mg of enantiomerically-pure (S)-tofisopam once a day (qd) on Day 1 and Day 7 of the study, and with placebo or 50 mg of enantiomerically-pure (S)-tofisopam three times a day (tid) for Days 2 to 6 of the study. […] In Table 6, days indicated with a minus sign (e.g. D-1) indicate the time point corresponding to that number of days before treatment was initiated. For example, D-14 is the time point fourteen days before treatment was initiated.

clearance creatinine = experiment: Creatinine clearance in patients with hyperuricemia and gout (Example 9); conditions: 50 mg qd Day 1 and 7, tid Days 2 to 6
Description: as §1

[2] = tested on: fractional excretion of urate; experiment: Fractional excretion of urate in patients with hyperuricemia and gout (Example 9); conditions: 50 mg qd Day 1 and 7, tid Days 2 to 6
Description: as §1

[3] = 50 mg qd Day 1 and Day 7, tid Days 2 to 6, Day 8 (after treatment stopped), hyperuricemia and gout
[4] = 50 mg qd Day 1 and Day 7, tid Days 2 to 6, Day 15 (after treatment stopped), hyperuricemia and gout
[5] = 50 mg qd Day 1 and Day 7, tid Days 2 to 6, male and female patients with hyperuricemia and gout
[6] = after 7 days of 50 mg treatment, hyperuricemia and gout
[7] = individual patient (P#), [D 1 to D 2] from [D −2 to D −1]
[8] = individual patient (P#), [D 6 to D 7] from [D 1 to D 2]
[9] = mean (M) of patients, [D 1 to D 2] from [D −2 to D −1]
[10] = mean (M) of patients, [D 6 to D 7] from [D 1 to D 2]
[11] = 50 mg qd Day 1 and Day 7, tid Days 2 to 6, Day 1 6 h (Day 1 0 h = 0.0), hyperuricemia and gout
[12] = 50 mg qd Day 1 and Day 7, tid Days 2 to 6, Day 1 to Day 2: Day 1 0 h + Day 2, hyperuricemia and gout
[13] = 50 mg qd Day 1 and Day 7, tid Days 2 to 6, Day 2 (Day 1 0 h = 0.0), hyperuricemia and gout
[14] = 50 mg qd Day 1 and Day 7, tid Days 2 to 6, Day 3 (Day 1 0 h = 0.0), hyperuricemia and gout
[15] = 50 mg qd Day 1 and Day 7, tid Days 2 to 6, Day 4 (Day 1 0 h = 0.0), hyperuricemia and gout
[16] = 50 mg qd Day 1 and Day 7, tid Days 2 to 6, Day 5 (Day 1 0 h = 0.0), hyperuricemia and gout
[17] = 50 mg qd Day 1 and Day 7, tid Days 2 to 6, Day 6 (Day 1 0 h = 0.0), hyperuricemia and gout
[18] = 50 mg qd Day 1 and Day 7, tid Days 2 to 6, Day 6 to Day 7: Day 6 + Day 7, hyperuricemia and gout
[19] = 50 mg qd Day 1 and Day 7, tid Days 2 to 6, Day 7 (Day 1 0 h = 0.0), hyperuricemia and gout

SMILES: CC[C@@H]1C(C)=NN=C(c2ccc(OC)c(OC)c2)c2cc(OC)c(OC)cc21 [(S)-tofisopam]
- Percent change in serum creatinine, individual patients (P# 1-13) (serum creatinine; [3]): 10.1% and −7.4% and −8.7% and −6.9% and 0.9% and −2.8% and 12.7% and 12.8% and 24.0%
- Percent change in serum creatinine, mean (M) of 13 patients (serum creatinine; [3]): 3.8%
- Percent change in serum creatinine, individual patients (P# 1-13) (serum creatinine; [4]): 27.8% and 9.3% and 19.4% and 4.9% and 17.1% and 23.6% and 25.4% and −2.6% and 46.7%
- Percent change in serum creatinine, mean (M) of 13 patients (serum creatinine; [4]): 13.6%
- Effect on serum creatinine levels (serum creatinine; [5]): does not modify
- Serum creatinine levels once treatment was stopped after 7 days (serum creatinine; [6]): did not substantially change
- Uric acid excretion levels in the urine ([1]; after initiation of treatment, 50 mg qd Day 1 and Day 7, tid Days 2 to 6, hyperuricemia and gout): increased
- Percent change in Uu (mg/24 h), amount of uric acid excreted into the urine over 24 hours [1, 7]: 14.4% and 6.5% and −29.9% and 12.0% and −55.4% and 85.4% and 25.1% and 99.2% and 43.4% and −30.9% and −7.1% and 27.8%
- Percent change in Uu (mg/dL), concentration of uric acid in 24 hour urine [1, 7]: 32.7% and −13.4% and 4.0% and 15.5% and −77.6% and 91.7% and 106.9% and 71.3% and 13.1% and −24.6% and −32.7% and 54.8%
- Percent change in Uu (mg/24 h), amount of uric acid excreted into the urine over 24 hours [1, 8]: 4.6% and 21.3% and 43.8% and 18.3% and 1.0% and −7.0% and −11.6% and −18.9% and 7.9% and −13.3% and −22.8%
- Percent change in Uu (mg/dL), concentration of uric acid in 24 hour urine [1, 8]: −15.6% and 1.7% and −17.5% and −15.9% and −20.8% and −40.4% and −48.3% and −49.3% and −9.5% and −14.3% and −39.5%
- Percent change in Uu (mg/24 h), amount of uric acid excreted into the urine over 24 hours [1, 9]: 15.9%
- Percent change in Uu (mg/dL), concentration of uric acid in 24 hour urine [1, 9]: 20.1%
- Percent change in Uu (mg/24 h), amount of uric acid excreted into the urine over 24 hours [1, 10]: 2.1%
- Percent change in Uu (mg/dL), concentration of uric acid in 24 hour urine [1, 10]: −24.5%
- Percent change in serum uric acid, individual patients (P# 1-13) (serum uric acid; [11]): −12.0% and 4.1% and −4.3% and −8.0% and −12.5% and −8.1% and −13.9% and −8.2% and −5.6%
- Percent change in serum uric acid, mean (M) of 13 patients (serum uric acid; [11]): −6.9%
- Percent change in serum uric acid, individual patients (P# 1-13) (serum uric acid; [12]): −10.7% and −9.6% and −4.3% and −7.3% and −8.9% and −8.1% and −12.0% and −2.6% and −3.5%
- Percent change in serum uric acid, mean (M) of 13 patients (serum uric acid; [12]): −6.8%
- Percent change in serum uric acid, individual patients (P# 1-13) (serum uric acid; [13]): −21.3% and −19.2% and −8.6% and −14.7% and −17.7% and −16.2% and −24.1% and −5.2% and −7.0%
- Percent change in serum uric acid, mean (M) of 13 patients (serum uric acid; [13]): −13.6%
- Percent change in serum uric acid, individual patients (P# 1-13) (serum uric acid; [14]): −32.0% and −43.8% and −14.3% and −30.7% and −36.5% and −18.9% and −45.6% and −12.4% and −16.9% and −9.6%
- Percent change in serum uric acid, mean (M) of 13 patients (serum uric acid; [14]): −26.6%
- Percent change in serum uric acid, individual patients (P# 1-13) (serum uric acid; [15]): −38.7% and −54.8% and −27.1% and −42.7% and −43.8% and −37.8% and −54.4% and −59.8% and −35.2%
- Percent change in serum uric acid, mean (M) of 13 patients (serum uric acid; [15]): −41.8%
- Percent change in serum uric acid, individual patients (P# 1-13) (serum uric acid; [16]): −48.0% and −52.1% and −40.0% and −36.0% and −45.8% and −33.8% and −50.6% and −25.8% and −39.4%
- Percent change in serum uric acid, mean (M) of 13 patients (serum uric acid; [16]): −41.1%
- Percent change in serum uric acid, individual patients (P# 1-13) (serum uric acid; [17]): −40.0% and −53.4% and −31.4% and −64.0% and −45.8% and −31.1% and −50.6% and −28.9% and −39.4%
- Percent change in serum uric acid, mean (M) of 13 patients (serum uric acid; [17]): −43.1%
- Percent change in serum uric acid, individual patients (P# 1-13) (serum uric acid; [18]): −44.0% and −56.2% and −36.4% and −56.0% and −46.9% and −31.1% and −53.2% and −34.5% and −40.8%
- Percent change in serum uric acid, mean (M) of 13 patients (serum uric acid; [18]): −45.1%
- Percent change in serum uric acid, individual patients (P# 1-13) (serum uric acid; [19]): −48.0% (2×) and −58.9% and −41.4% and −47.9% and −31.1% and −55.7% and −40.2% and −42.3%
- Percent change in serum uric acid, mean (M) of 13 patients (serum uric acid; [19]): −47.1%
- Percent change in serum uric acid, individual patients (P# 1-13) (serum uric acid; [3]): −36.0% (2×) and −46.6% and −32.9% and −41.7% and −24.3% and −45.6% and −30.9% and −26.8%
- Percent change in serum uric acid, mean (M) of 13 patients (serum uric acid; [3]): −35.5%
- Percent change in serum uric acid, individual patients (P# 1-13) (serum uric acid; [4]): 36.0% and 17.8% and 25.7% and −13.3% and 1.0% and 39.2% and 30.4% and 10.3% and 26.8%
- Percent change in serum uric acid, mean (M) of 13 patients (serum uric acid; [4]): 18.9%
- Effect on serum uric acid levels (serum uric acid; [5]): decreases
- Serum uric acid levels once treatment was stopped after 7 days (serum uric acid; [6]): began to increase again
- Percent change in CLc (clearance creatinine) (clearance creatinine; [7]): 35.1% and 2.5% and −24.4% and −14.2% and 16.2% and −22.4% and 0.7% and −4.1% and −2.7% and −1.3% and −11.8% and 11.2%
- Percent change in CLc (clearance creatinine) (clearance creatinine; [8]): −12.7% and 15.2% and 21.1% and 14.0% and 8.9% and 0.0% (2×) and −3.9% and 14.3% and 0.7% and −23.7%
- Percent change in CLc (clearance creatinine) (clearance creatinine; [9]): −1.3%
- Percent change in CLc (clearance creatinine) (clearance creatinine; [10]): 3.1%
- Percent change in FEu (fractional excretion uric acid) [2, 7]: −14.9% and 11.7% and −0.2% and 41.9% and −54.2% and 137.8% and 62.9% and 162.7% and 51.0% and −29.6% and 19.5% and 40.4%
- Percent change in FEu (fractional excretion uric acid) [2, 8]: 139.3% and 78.5% and 160.4% and 60.9% and 100.7% and 62.6% and 17.3% and 33.2% and 61.6% and 57.5% and 125.9%
- Percent change in FEu (fractional excretion uric acid) [2, 9]: 35.8%
- Percent change in FEu (fractional excretion uric acid) [2, 10]: 81.6%
